Laboratory results reported in patent publication US20260263533A1, “COMBINATION OF BIFIDOBACTERIUM AND FUCOSYLATED HMO FOR USE IN INCREASING NMN OR NAD+” (DSM IP Assets B.V., priority 2022, published 2026).

Legend:
B. infantis HA-116 [1] = test: Metabolomics of culture supernatants (NMN, NAD+); assay type: cell-based, Bifidobacterium infantis
Method: (§1) Initial overnight cultures in de Man, Rogosa, and Sharpe (MRS) medium with glucose (Merck, cat #110661) were prepared in an anaerobic chamber with mixed gas (90% N2, 5% CO2, and 5% H2) at 37° C. From the overnight cultures strains were subcultured 1:100 or 1:10 (if slow growing) into fresh MRS (with glucose) and grown to mid-log (without shaking) in the anerobic chamber at 37° C. For the carbohydrate utilization analysis, a BioLector (automated culturomics equipment, Biosciences) was used. Cells were inoculated 1:100 into MRS (without glucose, Liofilchem Cat #610144) in a 48 well MTP plate (Biosciences) containing 1% of one of the following carbon sources: glucose, lactose, a HMO mixture (containing 2′FL, 2′FL: DFL (range of 6:1-8:1), 3FL, 3′SL, 6′SL, LNnT and LNT in equal portions), HMO mixture+lactose or sterile DI water (as no sugar control) in a final volume of 2 mL and grown in the BioLector at 37° C. for up to 72 hours, shaking at 400 rpm under anaerobic conditions and continuous nitrogen gas flow. If a strain grew on the HMO mixture the experiment was repeated with the individual HMOs of the mixture as carbon source. Change in biomass, pH, and dissolved oxygen was monitored every 20 minutes by the BioLector. A minimum of two replicates were completed for each carbon source. […] Sample supernatants were analyzed using metabolomics by Metabolon (NC, USA).

B. infantis R0033 [2] = test: Metabolomics of culture supernatants (NMN, NAD+); assay type: cell-based, Bifidobacterium infantis
Method: as §1

B. infantis HA-116 [3] = test: BioLector growth on carbon sources; assay type: cell-based, Bifidobacterium infantis; set-up: key: +++: fast exponential growth reaching a plateau before 45 hours; ++: slower exponential growth reaching a plateau after 45 hours; +: slow almost linear growth, does not reach plateau during the time of fermentation; −: No significant growth for 50 h or more; conditions: 1% carbon source in MRS without glucose, 37° C., up to 72 hours, anaerobic
Method: (§2) Initial overnight cultures in de Man, Rogosa, and Sharpe (MRS) medium with glucose (Merck, cat #110661) were prepared in an anaerobic chamber with mixed gas (90% N2, 5% CO2, and 5% H2) at 37° C. From the overnight cultures strains were subcultured 1:100 or 1:10 (if slow growing) into fresh MRS (with glucose) and grown to mid-log (without shaking) in the anerobic chamber at 37° C. For the carbohydrate utilization analysis, a BioLector (automated culturomics equipment, Biosciences) was used. Cells were inoculated 1:100 into MRS (without glucose, Liofilchem Cat #610144) in a 48 well MTP plate (Biosciences) containing 1% of one of the following carbon sources: glucose, lactose, a HMO mixture (containing 2′FL, 2′FL: DFL (range of 6:1-8:1), 3FL, 3′SL, 6′SL, LNnT and LNT in equal portions), HMO mixture+lactose or sterile DI water (as no sugar control) in a final volume of 2 mL and grown in the BioLector at 37° C. for up to 72 hours, shaking at 400 rpm under anaerobic conditions and continuous nitrogen gas flow. If a strain grew on the HMO mixture the experiment was repeated with the individual HMOs of the mixture as carbon source. Change in biomass, pH, and dissolved oxygen was monitored every 20 minutes by the BioLector. A minimum of two replicates were completed for each carbon source. Samples were transferred to a 96 deep-well plate, spun down at 4000 rpm for 10 min at 4° C., and supernatants removed for analysis or stored at −80° C. until further analysis.

B. infantis R0033 [4] = test: BioLector growth on carbon sources; assay type: cell-based, Bifidobacterium infantis; set-up: key: +++: fast exponential growth reaching a plateau before 45 hours; ++: slower exponential growth reaching a plateau after 45 hours; +: slow almost linear growth, does not reach plateau during the time of fermentation; −: No significant growth for 50 h or more; conditions: 1% carbon source in MRS without glucose, 37° C., up to 72 hours, anaerobic
Method: as §2

B. bifidum 32403 = test: BioLector growth on carbon sources; assay type: cell-based, Bifidobacterium bifidum; conditions: for Ability to grow on carbon source: 1% carbon source in MRS without glucose, 37° C., up to 72 hours, anaerobic
Method: as §2

B. bifidum HA-132 = test: BioLector growth on carbon sources; assay type: cell-based, Bifidobacterium bifidum; conditions: 1% carbon source in MRS without glucose, 37° C., up to 72 hours, anaerobic
Method: as §2

B. bifidum R0071 [5] = test: BioLector growth on carbon sources; assay type: cell-based, Bifidobacterium bifidum; set-up: key: +++: fast exponential growth reaching a plateau before 45 hours; ++: slower exponential growth reaching a plateau after 45 hours; +: slow almost linear growth, does not reach plateau during the time of fermentation; −: No significant growth for 50 h or more; conditions: 1% carbon source in MRS without glucose, 37° C., up to 72 hours, anaerobic
Method: as §2

B. bifidum R0071 [6] = test: Metabolomics of culture supernatants (NMN, NAD+); assay type: cell-based, Bifidobacterium bifidum
Method: as §2, with “analysis. Sample supernatants were analyzed using metabolomics by Metabolon (NC, USA).” for “analysis.”

L. reuteri DSM 12246 [7] = test: Metabolomics of culture supernatants (NMN, NAD+); assay type: cell-based, Lactobacillus reuteri
Method: as §1

L. reuteri DSM 12246 [8] = test: BioLector growth on carbon sources; assay type: cell-based, Lactobacillus reuteri; conditions: FIG. 3B
Method: (§3) Initial overnight cultures in de Man, Rogosa, and Sharpe (MRS) medium with glucose (Merck, cat #110661) were prepared in an anaerobic chamber with mixed gas (90% N2, 5% CO2, and 5% H2) at 37° C. From the overnight cultures strains were subcultured 1:100 or 1:10 (if slow growing) into fresh MRS (with glucose) and grown to mid-log (without shaking) in the anerobic chamber at 37° C. For the carbohydrate utilization analysis, a BioLector (automated culturomics equipment, Biosciences) was used. Cells were inoculated 1:100 into MRS (without glucose, Liofilchem Cat #610144) in a 48 well MTP plate (Biosciences) containing 1% of one of the following carbon sources: glucose, lactose, a HMO mixture (containing 2′FL, 2′FL: DFL (range of 6:1-8:1), 3FL, 3′SL, 6′SL, LNnT and LNT in equal portions), HMO mixture+lactose or sterile DI water (as no sugar control) in a final volume of 2 mL and grown in the BioLector at 37° C. for up to 72 hours, shaking at 400 rpm under anaerobic conditions and continuous nitrogen gas flow. If a strain grew on the HMO mixture the experiment was repeated with the individual HMOs of the mixture as carbon source. Change in biomass, pH, and dissolved oxygen was monitored every 20 minutes by the BioLector. A minimum of two replicates were completed for each carbon source. […]

L. plantarum TIFN101 [9] = test: Metabolomics of culture supernatants (NMN, NAD+); assay type: cell-based, Lactobacillus plantarum
Method: as §1

L. plantarum TIFN101 [10] = test: BioLector growth on carbon sources; assay type: cell-based, Lactobacillus plantarum; conditions: FIG. 3C
Method: as §3

| Structure (SMILES) | NAD+ production compared with growth on lactose (in words) (B. infantis HA-116 [1]) | NAD+ production compared with growth on lactose (in words) (B. infantis R0033 [2]) | Ability to grow on carbon source (B. infantis HA-116 [3]) | Ability to grow on carbon source (B. infantis R0033 [4]) | Ability to grow on carbon source (B. bifidum 32403) | Ability to grow on carbon source (B. bifidum HA-132) | Ability to grow on carbon source (B. bifidum R0071 [5]) | NMN production (in words) (B. bifidum R0071 [6]) | Growth on carbon source (in words) (B. bifidum 32403; BioLector, FIG. 3A, FIG. 6) | NAD+ production (in words) (L. reuteri DSM 12246 [7]) | Growth on carbon source (in words) (L. reuteri DSM 12246 [8]) | NAD+ production (in words) (L. plantarum TIFN101 [9]) | NAD+ production (in words) (B. bifidum R0071 [6]) | Growth on carbon source (in words) (L. plantarum TIFN101 [10]) |
| --- | --- | --- | --- | --- | --- | --- | --- | --- | --- | --- | --- | --- | --- | --- |
| C[C@@H]1O[C@@H](O[C@H]2[C@H](O[C@H]3[C@H](O[C@@H]4O[C@@H](C)[C@@H](O)[C@@H](O)[C@@H]4O)[C@@H](O)C(O)O[C@@H]3CO)O[C@H](CO)[C@H](O)[C@@H]2O)[C@@H](O)[C@H](O)[C@@H]1O (some centres unmarked) [DFL, difucosyllactose] | a bit more | a bit more |  |  |  |  |  |  |  |  |  |  |  |  |
| CC(=O)N[C@H]1[C@H]([C@H](O)[C@H](O)CO)O[C@@](O[C@H]2[C@@H](O)[C@@H](CO)O[C@@H](O[C@H]3[C@H](O)[C@@H](O)C(O)O[C@@H]3CO)[C@@H]2O)(C(=O)O)C[C@@H]1O (some centres unmarked) [3′SL, 3′-sialyllactose] |  |  | − | − | +++ (fast exponential growth reaching a plateau before 45 hours) | +++ (fast exponential growth reaching a plateau before 45 hours) | − |  |  |  |  |  |  |  |
| CC(=O)N[C@H]1[C@H](O[C@H]2[C@@H](O)[C@@H](CO)O[C@@H](O[C@H]3[C@H](O)[C@@H](O)C(O)O[C@@H]3CO)[C@@H]2O)O[C@H](CO)[C@@H](O)[C@@H]1O[C@@H]1O[C@H](CO)[C@H](O)[C@H](O)[C@H]1O (some centres unmarked) [LNT, lacto-N-tetraose] |  |  | + | − | +++ (fast exponential growth reaching a plateau before 45 hours) | +++ (fast exponential growth reaching a plateau before 45 hours) | +++ (fast exponential growth reaching a plateau before 45 hours) | low amounts |  |  |  |  |  |  |
| C[C@H](O)[C@@H](O)[C@@H](O)[C@H](O)C=O [L-fucose] |  |  |  |  |  |  |  |  | not able to grow |  |  |  |  |  |
| OC[C@H]1O[C@@H](O[C@H]2[C@H](O)[C@@H](O)C(O)O[C@@H]2CO)[C@H](O)[C@@H](O)[C@H]1O (some centres unmarked) [Lactose, lactose] |  |  | +++ (fast exponential growth reaching a plateau before 45 hours) | +++ (fast exponential growth reaching a plateau before 45 hours) | +++ (fast exponential growth reaching a plateau before 45 hours) | ++ (slower exponential growth reaching a plateau after 45 hours) | +++ (fast exponential growth reaching a plateau before 45 hours) |  |  | able to produce NAD+ | capable of growing | able to produce NAD+ | able to produce NAD+ | capable of growing |
| CC(=O)N[C@H]1[C@H](O[C@H]2[C@@H](O)[C@@H](CO)O[C@@H](O[C@H]3[C@H](O)[C@@H](O)C(O)O[C@@H]3CO)[C@@H]2O)O[C@H](CO)[C@@H](O[C@@H]2O[C@H](CO)[C@H](O)[C@H](O)[C@H]2O)[C@@H]1O (mixture of isomers) [LNnT, lacto-N-neotetraose] |  |  | + | − | +++ (fast exponential growth reaching a plateau before 45 hours) | +++ (fast exponential growth reaching a plateau before 45 hours) | ++ (slower exponential growth reaching a plateau after 45 hours) | low amounts |  |  |  |  |  |  |
| CC(=O)N[C@H]1[C@H]([C@H](O)[C@H](O)CO)O[C@@](OC[C@H]2O[C@@H](O[C@H]3[C@H](O)[C@@H](O)[C@H](O)O[C@@H]3CO)[C@H](O)[C@@H](O)[C@H]2O)(C(=O)O)C[C@@H]1O [6′SL, 6′-sialyllactose] |  |  | − | − | +++ (fast exponential growth reaching a plateau before 45 hours) | +++ (fast exponential growth reaching a plateau before 45 hours) | − |  |  |  |  |  |  |  |
